# Source: US12065430B2, “Indazole compound or salt thereof” (TAIHO PHARMACEUTICAL CO., LTD., priority 2018, dated 2024)
# Molecular target: G12C K-Ras4B (1-169) (Homo sapiens (Human), UniProt P01116, G12C)
# Test: Test of compounds on whether to bind to KRASG12C (LC-MS compound binding rate)
# Details: final compound concentration of 2 μM, 1 μM protein, 25° C. for 2 hours
# Procedure, shortened: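 K-Ras4B (1-169) WT and G12C (1 μM each, mixed) in 1×TBS, 0.1 mM TCEP incubated with compound (final 2 μM) 2 h at 25° C; quenched with 0.2% formic acid. Intact-protein LC-MS (ESI+, deconvoluted); binding rate = adduct signal/(adduct + unbound signal), giving selectivity over WT.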
row,SMILES,binding rate for G12C K-Ras4B (1-169)
1,"C=CC(=O)N1CC(NC(=O)c2c(C)nc(CNc3n[nH]c4cc(Cl)c(C(C)(C)C)cc34)n2C2CC2)C1 [Example 23, N-(1-acryloylazetidin-3-yl)-2-(((5-(tert-butyl)-6-chloro-1H-indazol-3-yl)amino)methyl)-1-cyclopropyl-4-methyl-1H-imidazole-5-carboxamide]","A (a binding rate of 80% or more is rated “A,”)"
2,"C=CC(=O)N1CC(NC(=O)c2c(Cl)nc(CNc3n[nH]c4cc(Cl)c(C(C)C)cc34)n2C(C)C)C1 [Example 45, N-(1-acryloylazetidin-3-yl)-4-chloro-2-(((6-chloro-5-isopropyl-1H-indazol-3-yl)amino)methyl)-1-isopropyl-1H-imidazole-5-carboxamide]","A (a binding rate of 80% or more is rated “A,”)"
3,"C=CC(=O)N1C[C@@H](CC#N)[C@@H](NC(=O)c2c(C)nc(CNc3n[nH]c4cc(Cl)c(C(C)(C)C)cc34)n2C)C1 [Example 65, N-((3R,4R)-1-acryloyl-4-(cyanomethyl)pyrrolidin-3-yl)-2-(((5-(tert-butyl)-6-chloro-1H-indazol-3-yl)amino)methyl)-1,4-dimethyl-1H-imidazole-5-carboxamide]","B (a binding rate of 60% or more and less than 80% is rated “B,”)"
4,"C=CC(=O)N1CC(NC(=O)c2cnc(CNc3n[nH]c4cc(Cl)c(Br)cc34)n2C)C1 [Reference Example 1, N-(1-acryloylazetidin-3-yl)-2-(((5-bromo-6-chloro-1H-indazol-3-yl)amino)methyl)-1-methyl-1H-imidazole-5-carboxamide, reference compound]",E (a binding rate of less than 20% is rated “E.”)
5,"C=CC(=O)N1CC(NC(=O)c2c(Cl)nc(CNc3n[nH]c4cc(Cl)c(C(C)(C)C)cc34)n2C2CCCN(C)C2)C1 (stereo not shown) [Example 118, N-(1-acryloylazetidin-3-yl)-2-(((5-(tert-butyl)-6-chloro-1H-indazol-3-yl)amino)methyl)-4-chloro-1-(1-methylpiperidin-3-yl)-1H-imidazole-5-carboxamide]","A (a binding rate of 80% or more is rated “A,”)"
6,"C/C=C/C(=O)N1CC(NC(=O)c2c(C)nc(CNc3n[nH]c4cc(Cl)c(C(C)(C)C)cc34)n2C(C)C)C1 [Example 81, (E)-N-(1-(but-2-enoyl)azetidin-3-yl)-2-(((5-(tert-butyl)-6-chloro-1H-indazol-3-yl)amino)methyl)-1-isopropyl-4-methyl-1H-imidazole-5-carboxamide]",E (a binding rate of less than 20% is rated “E.”)
7,"C=CC(=O)N1CC(NC(=O)c2c(Cl)nc(CNc3n[nH]c4cc(Cl)c(C(C)(C)C)cc34)n2CC2CCCC2)C1 [Example 110, N-(1-acryloylazetidin-3-yl)-2-(((5-(tert-butyl)-6-chloro-1H-indazol-3-yl)amino)methyl)-4-chloro-1-(cyclopentylmethyl)-1H-imidazole-5-carboxamide]","A (a binding rate of 80% or more is rated “A,”)"
8,"C=CC(=O)N1CC(NC(=O)c2c(Cl)nc(CNc3n[nH]c4cc(Cl)c(C(C)(C)C)cc34)n2[C@@H]2CCN(CCOC)C2)C1 [Example 119, (R)—N-(1-acryloylazetidin-3-yl)-2-(((5-(tert-butyl)-6-chloro-1H-indazol-3-yl)amino)methyl)-4-chloro-1-(1-(2-methoxyethyl)pyrrolidin-3-yl)-1H-imidazole-5-carboxamide]","B (a binding rate of 60% or more and less than 80% is rated “B,”)"
9,"C=CC(=O)N1CC(NC(=O)c2c(Cl)nc(CNc3n[nH]c4cc(Cl)c(C(C)(C)C)cc34)n2[C@H]2CCN(C(C)C)C2)C1 [Example 116, (S)—N-(1-acryloylazetidin-3-yl)-2-(((5-(tert-butyl)-6-chloro-1H-indazol-3-yl)amino)methyl)-4-chloro-1-(1-isopropylpyrrolidin-3-yl)-1H-imidazole-5-carboxamide]","B (a binding rate of 60% or more and less than 80% is rated “B,”)"
10,"C=CC(=O)N1CC(NC(=O)c2c(Cl)nc(CNc3n[nH]c4cc(Cl)c(C(C)(C)C)cc34)n2C2CCCN(CC(F)F)C2)C1 (stereo not shown) [Example 117, N-(1-acryloylazetidin-3-yl)-2-(((5-(tert-butyl)-6-chloro-1H-indazol-3-yl)amino)methyl)-4-chloro-1-(1-(2,2-difluoroethyl)piperidin-3-yl)-1H-imidazole-5-carboxamide]","A (a binding rate of 80% or more is rated “A,”)"
11,"C=CC(=O)N1CC(NC(=O)c2c(Cl)nc(CNc3n[nH]c4cc(Cl)c(C(C)(C)C)cc34)n2C2CN(C(C)=O)C2)C1 [Example 108, 1-(1-acetylazetidin-3-yl)-N-(1-acryloylazetidin-3-yl)-2-(((5-(tert-butyl)-6-chloro-1H-indazol-3-yl)amino)methyl)-4-chloro-1H-imidazole-5-carboxamide]","A (a binding rate of 80% or more is rated “A,”)"
12,"C=CC(=O)N1CC(NC(=O)c2cnc(C(C)Nc3n[nH]c4cc(Cl)c(C(C)(C)C)cc34)n2C)C1 (stereo not shown) [Example 4, N-(1-acryloylazetidin-3-yl)-2-(1-((5-(tert-butyl)-6-chloro-1H-indazol-3-yl)amino)ethyl)-1-methyl-1H-imidazole-5-carboxamide]","C (a binding rate of 40% or more and less than 60% is rated “C,”)"
13,"C=CC(=O)N1CC[C@@H](NC(=O)c2c(Cl)nc(CNc3n[nH]c4cc(Cl)c(C(C)(C)C)cc34)n2C)C1 [Example 73, (R)—N-(1-acryloylpyrrolidin-3-yl)-2-(((5-(tert-butyl)-6-chloro-1H-indazol-3-yl)amino)methyl)-4-chloro-1-methyl-1H-imidazole-5-carboxamide]","B (a binding rate of 60% or more and less than 80% is rated “B,”)"
14,"C=CC(=O)N1CC(NC(=O)c2c(C(F)F)nc(CNc3n[nH]c4cc(Cl)c(C(C)(C)C)cc34)n2C2CCN(C(C)=O)C2)C1 (stereo not shown) [Example 96, 1-(1-Acetylpyrrolidin-3-yl)-N-(1-acryloylazetidin-3-yl)-2-(((5-(tert-butyl)-6-chloro-1H-indazol-3-yl)amino)methyl)-4-(difluoromethyl)-1H-imidazole-5-carboxamide]","A (a binding rate of 80% or more is rated “A,”)"
15,"C=CC(=O)N1CC(NC(=O)c2c(-c3ccccc3)nc(CNc3n[nH]c4cc(Cl)c(C(C)(C)C)cc34)n2C)C1 [Reference Example 3, N-(1-acryloylazetidin-3-yl)-2-(((5-(tert-butyl)-6-chloro-1H-indazol-3-yl)amino)methyl)-1-methyl-4-phenyl-1H-imidazole-5-carboxamide, reference compound]",E (a binding rate of less than 20% is rated “E.”)
16,"C=CC(=O)N1CC(NC(=O)c2c(Cl)c(CNc3n[nH]c4cc(Cl)c(C(C)(C)C)cc34)nn2C)C1 [Example 6, N-(1-acryloylazetidin-3-yl)-3-(((5-(tert-butyl)-6-chloro-1H-indazol-3-yl)amino)methyl)-4-chloro-1-methyl-1H-pyrazole-5-carboxamide]","B (a binding rate of 60% or more and less than 80% is rated “B,”)"
17,"C=CC(=O)N1C[C@@H](C)[C@@H](NC(=O)c2c(F)nc(CNc3n[nH]c4cc(Cl)c(C(C)(C)C)cc34)n2C)C1 [Example 74, N-((3R,4R)-1-acryloyl-4-methylpyrrolidin-3-yl)-2-(((5-(tert-butyl)-6-chloro-1H-indazol-3-yl)amino)methyl)-4-fluoro-1-methyl-1H-imidazole-5-carboxamide]","A (a binding rate of 80% or more is rated “A,”)"
18,"C=CC(=O)N1CC(NC(=O)c2c(F)nc(CNc3n[nH]c4cc(Cl)c(C(C)(C)C)cc34)n2C)C1 [Example 30, N-(1-acryloylazetidin-3-yl)-2-(((5-(tert-butyl)-6-chloro-1H-indazol-3-yl)amino)methyl)-4-fluoro-1-methyl-1H-imidazole-5-carboxamide]","C (a binding rate of 40% or more and less than 60% is rated “C,”)"
19,"C=CC(=O)N1CC(NC(=O)c2c(C)nc(CNc3n[nH]c4cc(Cl)c(C(C)(C)C)cc34)n2CCCC)C1 [Example 18, N-(1-acryloylazetidin-3-yl)-1-butyl 2-(((5-(tert-butyl)-6-chloro-1H-indazol-3-yl)amino)methyl)-4-methyl-1H-imidazole-5-carboxamide]","B (a binding rate of 60% or more and less than 80% is rated “B,”)"
20,"C=CC(=O)N1CC(NC(=O)c2c(C)nc(CNc3n[nH]c4cc(Cl)c(C(C)(C)C)cc34)n2CCC)C1 [Example 19, N-(1-acryloylazetidin-3-yl)-2-(((5-(tert-butyl)-6-chloro-1H-indazol-3-yl)amino)methyl)-4-methyl-1-propyl-1H-imidazole-5-carboxamide]","A (a binding rate of 80% or more is rated “A,”)"
21,"C=CC(=O)N1CC(NC(=O)c2c(C#N)nc(CNc3n[nH]c4cc(Cl)c(C(C)(C)C)cc34)n2C)C1 [Example 28, N-(1-acryloylazetidin-3-yl)-2-(((5-(tert-butyl)-6-chloro-1H-indazol-3-yl)amino)methyl)-4-cyano-1-methyl-1H-imidazole-5-carboxamide]","B (a binding rate of 60% or more and less than 80% is rated “B,”)"
22,"C=CC(=O)N1CC(NC(=O)c2c(C)nc(CNc3n[nH]c4cc(Cl)c(C(C)(C)C)cc34)n2C)C(F)(F)C1 (stereo not shown) [Example 53, N-(1-acryloyl-4,4-difluoropyrrolidin-3-yl)-2-(((5-(tert-butyl)-6-chloro-1H-indazol-3-yl)amino)methyl)-1,4-dimethyl-1H-imidazole-5-carboxamide]","B (a binding rate of 60% or more and less than 80% is rated “B,”)"
